From patent US20230317203A1, “SCREENING METHOD” (University of Leeds, priority 2022, published 2023)

Key:
BRISC [1] = biological target: T1, BRISC (Homo sapiens, UniProt P46736+Q15018+Q9NXR7); assay: Mass photometry of BRISC oligomeric state; format: binding; conditions: purified BRISC mixed with inhibitor, FIG. 2B
Experimental: (§1) Microscope coverslips were prepared as previously described^33. All mass photometry experiments were performed using a One^MP mass photometer (Refeyn Ltd, Oxford, UK). For preliminary BRISC-inhibitor measurements, 1 μM BRISC(FL) was mixed with either DMSO or inhibitor at 330 μM and incubated for 15 minutes on ice. Prior to MP measurement, the BRISC-inhibitor mix was diluted in gel filtration buffer (25 mM HEPES, 150 mM NaCl, 1 mM TCEP) for a final concentration of BRISC at 10 nM (0.05% DMSO). 12 μL of this dilution was used for the final MP measurement, following autofocus stabilisation. […] The BRISC-inhibitor mix was used directly for MP measurement using buffer-free autofocus stabilisation. Movies were recorded for 60 seconds using AcquireMP (Refeyn, UK), and were processed using DiscoverMP (Refeyn, UK). Mass photometry image processing has been previously described^33. Briefly, contrast-to-mass (C2M) calibration was performed using protein standards (66-669 kDa) diluted in gel filtration buffer. […] The mass distribution from each run is in a histogram, where count refers to each landing event and a Gaussian sum is fitted to the data. The relative amount of each species is calculated as the area of each Gaussian, where a refers to the standard deviation of the fitted Gaussian. […] Curves were fitted and EC50 values were calculated using the GraphPad Prism (v8.0) built-in dose-response equation for concentration of agonist vs. response (variable slope).

BRISC [2] = assay: Mass photometry of BRISC oligomeric state; format: binding, human; conditions: mass photometry
Experimental: as §1

BRISC BRCC45 mutants = assay: IQF DUB assay, BRISC BRCC45 mutants; format: biochemical, human; conditions: four BRCC45 residues mutated, FIG. 4B
Experimental: The four-subunit human BRISC (full-length (FL) and MERIT40ΔN, Abraxas2ΔC) complex was cloned using the MultiBac system and co-expressed in Spodoptera frugiperda (Sf9) insect cells^32. BRISC mutants were cloned into pFastBac vectors in the Bac-to-Bac system (ThermoFisher), baculoviruses generated in Sf9 cells and used for co-infection of Trichoplusia ni (Tni) cells. All BRISC complexes were purified as previously described^12,13.
BRISC complexes were tested for activity in DUB reaction buffer containing 50 mM HEPES-NaOH pH 7.0, 100 mM NaCl, 0.1 mg/mL BSA, 1 mM DTT, and 0.003% Brij-35. […] Inhibitors were assayed at concentrations up to 200 μM. […] DUB activity was measured using internally quenched fluorescent (IQF) K63-linked diUb (Lifesensors, catalogue number: DU6303) at 50 or 100 nM. Cleaved diUb was monitored by measuring fluorescence intensity (Ex. 540 nm, Em. 580 nm; dichroic mirror 560 nm). Fluorescence intensity was measured every minute for 30 minutes at 30° C. Fluorescence intensity units for the first 10 minutes were plotted against time to generate a linear reaction progress curve, where the initial velocity (v0) corresponds to the gradient of the curve. IC50 values were calculated using the GraphPad Prism (v8.0) built-in dose-response equation for inhibitor concentration vs. response (variable slope). […]

BRISC [3] = biological target: T1, BRISC; assay: IQF K63-linked diUb DUB activity assay, BRISC; format: biochemical; set-up: made in house; host or cells: Spodoptera frugiperda (Sf9) insect cells; conditions: IQF assay, fluorescent di-ubiquitin substrate, FIG. 1F
Experimental: BRISC complexes were tested for activity in DUB reaction buffer containing 50 mM HEPES-NaOH pH 7.0, 100 mM NaCl, 0.1 mg/mL BSA, 1 mM DTT, and 0.003% Brij-35. […] Inhibitors were assayed at concentrations up to 200 μM. 20 μL enzyme reactions were carried out in 384-well black flat-bottom low flange plates (Corning; 35373). DUB activity was measured using internally quenched fluorescent (IQF) K63-linked diUb (Lifesensors, catalogue number: DU6303) at 50 or 100 nM. Cleaved diUb was monitored by measuring fluorescence intensity (Ex. 540 nm, Em. 580 nm; dichroic mirror 560 nm). Fluorescence intensity was measured every minute for 30 minutes at 30° C. Fluorescence intensity units for the first 10 minutes were plotted against time to generate a linear reaction progress curve, where the initial velocity (v0) corresponds to the gradient of the curve. IC50 values were calculated using the GraphPad Prism (v8.0) built-in dose-response equation for inhibitor concentration vs. response (variable slope).
A high throughput biochemical screen was designed to identify inhibitors of BRISC, based on the ability of small molecules to inhibit BRISC cleavage of a K63-linked di-ubiquitin substrate. The di-ubiquitin substrate is designed with a fluorescent TAMRA dye on the proximal ubiquitin moiety and fluorescence quencher on the distal ubiquitin molecule (FIG. 1A). Upon isopeptidase bond cleavage, fluorescence is detected, enabling continuous fluorescent readout of deubiquitylase activity over time (FIG. 1A). The assay conditions were optimised and used to test an in-house compound library comprising of ˜300 published and custom-made kinase inhibitors. From this screen, two hits were identified, compounds AT7519 (well H20) and YM201636 (well P12) (FIG. 1B). The specificity of these compounds was assessed against the broad-spectrum DUB ubiquitin-specific protease-2 (USP2) and the serine protease trypsin which cleave K63-Ub substrate under the same conditions. […] UV-Vis spectroscopy analyses of the compound in well H20 used in the screen compared to the Synkinase and Sellechem AT7519 compounds identified an additional peak in the H20 spectra (FIG. 5C). […] The synthesis of the two isomers was confirmed using mass spectrometry fragmentation analyses (FIG. 5E) and the inhibitory effect of the isomers was tested against BRISC.

BRISC [4] = biological target: T1, BRISC; assay: BRISC-mediated tetraubiquitin chain cleavage by Western blotting; format: biochemical; set-up: made in house; host or cells: Spodoptera frugiperda (Sf9) insect cells; conditions: K63-linked Ub4, Western blot, FIG. 6B
From the text: The potency of these analogues was characterised in the IQF assay with a fluorescent di-ubiquitin substrate. […] We confirmed the ability of these inhibitors to block BRISC-mediated tetraubiquitin chain cleavage by Western blotting (FIG. 6B).

Compound: O=C(NC1C2CNCC21)c1nn(C(=O)c2c(Cl)cccc2Cl)cc1NC(=O)c1c(Cl)cccc1Cl (stereo not drawn) [FX-171-C]
- mass photometry counts, 1:1:1:1 complex (BRISC [1]): 13%
- mass photometry counts, dimer (BRISC [1]): 52%
- dimer formation at increasing inhibitor concentration (BRISC [2]): dose-dependent increase in dimer formation
- ability to recognise the inhibitor (BRISC BRCC45 mutants): reduced
- IC50 compared to JMS-175-2 (BRISC [3]): slightly improved
- inhibition of tetraubiquitin chain cleavage (BRISC [4]): Dose-dependent inhibition
